{
  "source": "ChEMBL document CHEMBL1139192",
  "about": "“Novel bis(indolyl)maleimide pyridinophanes that are potent, selective inhibitors of glycogen synthase kinase-3” (Bioorg Med Chem Lett, 2007)",
  "key": {"[1]": {"target": "T1, Serine/threonine-protein kinase D1 (Homo sapiens) (UniProt Q15139)", "T1 sequence (whole entry)": "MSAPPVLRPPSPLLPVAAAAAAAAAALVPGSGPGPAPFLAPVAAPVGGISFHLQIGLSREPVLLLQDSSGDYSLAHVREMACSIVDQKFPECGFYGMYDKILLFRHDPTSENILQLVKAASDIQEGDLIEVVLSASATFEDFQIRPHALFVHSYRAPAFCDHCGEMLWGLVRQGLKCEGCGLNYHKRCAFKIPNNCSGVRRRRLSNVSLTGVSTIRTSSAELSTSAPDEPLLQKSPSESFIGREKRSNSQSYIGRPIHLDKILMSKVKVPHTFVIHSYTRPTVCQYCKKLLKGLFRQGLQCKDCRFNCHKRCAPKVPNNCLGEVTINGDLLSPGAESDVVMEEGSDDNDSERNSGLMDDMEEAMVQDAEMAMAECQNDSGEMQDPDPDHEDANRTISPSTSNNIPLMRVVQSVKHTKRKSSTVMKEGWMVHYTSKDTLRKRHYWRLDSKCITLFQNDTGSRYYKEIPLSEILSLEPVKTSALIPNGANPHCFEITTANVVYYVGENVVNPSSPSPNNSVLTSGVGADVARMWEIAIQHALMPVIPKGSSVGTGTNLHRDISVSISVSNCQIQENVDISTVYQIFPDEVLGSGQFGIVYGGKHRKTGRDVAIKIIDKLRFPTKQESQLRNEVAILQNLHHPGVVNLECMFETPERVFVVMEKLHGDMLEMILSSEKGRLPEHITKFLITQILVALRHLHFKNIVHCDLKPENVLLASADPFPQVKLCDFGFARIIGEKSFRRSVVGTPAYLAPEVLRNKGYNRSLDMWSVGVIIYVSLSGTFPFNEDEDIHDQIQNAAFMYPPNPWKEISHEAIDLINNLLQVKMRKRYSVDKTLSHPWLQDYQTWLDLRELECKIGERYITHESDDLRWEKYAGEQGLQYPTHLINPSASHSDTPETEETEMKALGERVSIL", "assay": "Residual activity of human PKCmu at 1 uM relative to control"}, "[2]": {"target": "RAC-beta serine/threonine-protein kinase (Homo sapiens) (UniProt P31751)", "sequence (P31751 whole entry)": "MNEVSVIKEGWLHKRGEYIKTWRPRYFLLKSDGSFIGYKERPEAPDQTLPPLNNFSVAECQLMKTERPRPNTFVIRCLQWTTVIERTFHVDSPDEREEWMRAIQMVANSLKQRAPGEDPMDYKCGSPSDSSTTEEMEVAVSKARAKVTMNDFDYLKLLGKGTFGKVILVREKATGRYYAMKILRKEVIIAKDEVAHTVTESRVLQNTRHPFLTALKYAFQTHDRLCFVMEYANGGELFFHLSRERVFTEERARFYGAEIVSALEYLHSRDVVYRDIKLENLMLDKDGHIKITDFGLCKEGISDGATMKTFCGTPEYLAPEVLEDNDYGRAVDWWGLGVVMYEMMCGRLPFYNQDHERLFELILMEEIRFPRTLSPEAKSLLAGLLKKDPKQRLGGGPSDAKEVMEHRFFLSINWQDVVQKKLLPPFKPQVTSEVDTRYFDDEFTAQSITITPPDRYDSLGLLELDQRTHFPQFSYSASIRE", "assay": "Residual activity of human PKBbeta at 1 uM relative to control"}, "[3]": {"target": "Protein kinase C theta type (Homo sapiens, UniProt Q04759)", "sequence (Q04759 whole entry, looked up)": "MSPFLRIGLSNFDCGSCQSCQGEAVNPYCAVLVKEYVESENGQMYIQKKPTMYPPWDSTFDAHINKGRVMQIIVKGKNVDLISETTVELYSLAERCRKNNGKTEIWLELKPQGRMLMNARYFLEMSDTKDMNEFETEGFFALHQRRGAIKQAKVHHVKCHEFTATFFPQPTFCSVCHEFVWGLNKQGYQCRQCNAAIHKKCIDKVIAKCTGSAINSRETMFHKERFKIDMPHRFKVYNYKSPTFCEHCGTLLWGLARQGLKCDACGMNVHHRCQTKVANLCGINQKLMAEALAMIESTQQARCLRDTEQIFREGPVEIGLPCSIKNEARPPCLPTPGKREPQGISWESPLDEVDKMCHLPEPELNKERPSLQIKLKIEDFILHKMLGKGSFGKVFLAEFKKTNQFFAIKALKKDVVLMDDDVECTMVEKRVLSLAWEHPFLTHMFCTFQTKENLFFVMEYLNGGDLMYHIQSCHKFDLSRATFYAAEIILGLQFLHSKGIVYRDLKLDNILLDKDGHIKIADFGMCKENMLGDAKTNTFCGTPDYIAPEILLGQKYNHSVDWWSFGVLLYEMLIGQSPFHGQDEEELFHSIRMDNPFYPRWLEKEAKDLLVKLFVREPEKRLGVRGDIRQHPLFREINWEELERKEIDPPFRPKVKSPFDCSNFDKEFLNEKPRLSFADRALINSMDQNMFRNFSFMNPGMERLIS", "assay": "Residual activity of human PKCtheta at 1 uM relative to control"}, "[4]": {"target": "Ribosomal protein S6 kinase alpha-3 (Homo sapiens) (UniProt P51812)", "assay": "Inhibition of human Rsk3 at 1 uM relative to control; values are per cent of control"}, "[5]": {"target": "Platelet-derived growth factor receptor beta (Homo sapiens) (UniProt P09619)", "sequence (P09619 whole entry)": "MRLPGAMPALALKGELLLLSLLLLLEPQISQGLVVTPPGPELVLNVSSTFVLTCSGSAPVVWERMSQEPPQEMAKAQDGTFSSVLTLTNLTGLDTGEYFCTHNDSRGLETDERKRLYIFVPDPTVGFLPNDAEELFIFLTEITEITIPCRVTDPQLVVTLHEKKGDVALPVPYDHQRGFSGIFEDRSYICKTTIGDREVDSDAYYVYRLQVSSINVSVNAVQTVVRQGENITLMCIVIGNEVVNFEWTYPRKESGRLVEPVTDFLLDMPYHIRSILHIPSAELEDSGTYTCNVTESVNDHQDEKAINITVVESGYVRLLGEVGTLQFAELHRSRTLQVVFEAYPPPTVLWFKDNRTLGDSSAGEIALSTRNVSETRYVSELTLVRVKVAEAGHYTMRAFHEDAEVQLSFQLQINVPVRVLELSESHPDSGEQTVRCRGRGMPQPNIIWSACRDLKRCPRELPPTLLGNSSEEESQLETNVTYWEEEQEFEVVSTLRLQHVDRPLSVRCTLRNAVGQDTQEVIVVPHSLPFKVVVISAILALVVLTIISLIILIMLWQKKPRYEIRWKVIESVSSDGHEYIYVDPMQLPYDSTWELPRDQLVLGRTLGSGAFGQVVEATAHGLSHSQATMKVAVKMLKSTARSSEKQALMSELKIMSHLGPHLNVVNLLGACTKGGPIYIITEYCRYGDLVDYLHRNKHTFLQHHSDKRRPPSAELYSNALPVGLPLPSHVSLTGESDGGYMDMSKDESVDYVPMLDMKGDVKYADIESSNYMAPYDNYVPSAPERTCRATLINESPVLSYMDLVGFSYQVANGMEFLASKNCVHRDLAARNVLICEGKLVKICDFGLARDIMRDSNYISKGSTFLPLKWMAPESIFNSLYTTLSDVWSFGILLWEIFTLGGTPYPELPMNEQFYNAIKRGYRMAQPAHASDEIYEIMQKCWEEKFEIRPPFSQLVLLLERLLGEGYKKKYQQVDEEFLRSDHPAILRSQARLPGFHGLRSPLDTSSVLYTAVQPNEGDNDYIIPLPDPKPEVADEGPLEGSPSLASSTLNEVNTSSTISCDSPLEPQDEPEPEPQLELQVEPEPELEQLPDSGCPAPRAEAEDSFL", "assay": "Inhibition of human PDGFRbeta at 1 uM relative to control; values are per cent of control"}, "[6]": {"target": "Protein kinase C beta type (Homo sapiens, UniProt P05771)", "sequence (P05771 2-671 limits assumed)": "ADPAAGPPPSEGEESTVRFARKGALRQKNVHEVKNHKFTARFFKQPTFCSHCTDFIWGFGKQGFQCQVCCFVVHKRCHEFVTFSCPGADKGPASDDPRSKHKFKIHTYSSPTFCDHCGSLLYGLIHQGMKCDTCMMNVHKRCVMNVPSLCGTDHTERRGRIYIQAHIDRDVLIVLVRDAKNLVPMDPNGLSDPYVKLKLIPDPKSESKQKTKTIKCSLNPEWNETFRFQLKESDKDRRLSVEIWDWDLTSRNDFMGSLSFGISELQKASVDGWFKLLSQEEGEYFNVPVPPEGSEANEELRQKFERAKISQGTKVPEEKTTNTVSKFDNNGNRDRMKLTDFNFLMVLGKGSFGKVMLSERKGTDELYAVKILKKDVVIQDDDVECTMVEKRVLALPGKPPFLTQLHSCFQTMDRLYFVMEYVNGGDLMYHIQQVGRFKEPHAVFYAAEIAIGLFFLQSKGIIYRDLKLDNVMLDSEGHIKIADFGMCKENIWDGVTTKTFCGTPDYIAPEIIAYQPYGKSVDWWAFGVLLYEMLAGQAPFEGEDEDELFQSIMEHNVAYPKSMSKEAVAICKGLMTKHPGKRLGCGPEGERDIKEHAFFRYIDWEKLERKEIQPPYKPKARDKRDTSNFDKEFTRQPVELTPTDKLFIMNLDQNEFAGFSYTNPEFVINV", "assay": "Residual activity of human PKCbeta2 at 1 uM relative to control"}, "[7]": {"target": "Fibroblast growth factor receptor 3 (Homo sapiens) (UniProt P22607)", "sequence (P22607 23-806 limits assumed)": "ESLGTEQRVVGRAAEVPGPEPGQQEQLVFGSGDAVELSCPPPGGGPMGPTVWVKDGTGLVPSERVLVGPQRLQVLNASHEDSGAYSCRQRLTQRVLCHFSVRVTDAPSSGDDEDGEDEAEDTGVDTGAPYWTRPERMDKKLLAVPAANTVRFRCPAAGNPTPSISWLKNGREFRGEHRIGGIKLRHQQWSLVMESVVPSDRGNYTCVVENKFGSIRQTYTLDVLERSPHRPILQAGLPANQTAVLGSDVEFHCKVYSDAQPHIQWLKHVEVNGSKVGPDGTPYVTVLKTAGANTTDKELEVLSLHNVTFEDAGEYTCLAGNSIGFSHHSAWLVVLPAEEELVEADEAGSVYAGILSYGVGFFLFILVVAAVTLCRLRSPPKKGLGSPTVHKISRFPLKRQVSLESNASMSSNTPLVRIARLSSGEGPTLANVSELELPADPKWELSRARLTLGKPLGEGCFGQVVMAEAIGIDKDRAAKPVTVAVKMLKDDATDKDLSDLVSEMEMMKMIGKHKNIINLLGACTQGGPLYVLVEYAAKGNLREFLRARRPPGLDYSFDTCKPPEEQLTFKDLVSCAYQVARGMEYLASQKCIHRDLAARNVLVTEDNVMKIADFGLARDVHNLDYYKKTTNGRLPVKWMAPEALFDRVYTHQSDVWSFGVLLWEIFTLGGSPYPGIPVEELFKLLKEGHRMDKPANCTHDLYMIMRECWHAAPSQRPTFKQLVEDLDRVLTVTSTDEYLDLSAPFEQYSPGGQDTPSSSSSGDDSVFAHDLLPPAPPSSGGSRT", "assay": "Residual activity of human FGFR3 at 1 uM relative to control"}, "[8]": {"target": "T2, Protein kinase C iota type (Homo sapiens) (UniProt P41743)", "T2 sequence (whole entry)": "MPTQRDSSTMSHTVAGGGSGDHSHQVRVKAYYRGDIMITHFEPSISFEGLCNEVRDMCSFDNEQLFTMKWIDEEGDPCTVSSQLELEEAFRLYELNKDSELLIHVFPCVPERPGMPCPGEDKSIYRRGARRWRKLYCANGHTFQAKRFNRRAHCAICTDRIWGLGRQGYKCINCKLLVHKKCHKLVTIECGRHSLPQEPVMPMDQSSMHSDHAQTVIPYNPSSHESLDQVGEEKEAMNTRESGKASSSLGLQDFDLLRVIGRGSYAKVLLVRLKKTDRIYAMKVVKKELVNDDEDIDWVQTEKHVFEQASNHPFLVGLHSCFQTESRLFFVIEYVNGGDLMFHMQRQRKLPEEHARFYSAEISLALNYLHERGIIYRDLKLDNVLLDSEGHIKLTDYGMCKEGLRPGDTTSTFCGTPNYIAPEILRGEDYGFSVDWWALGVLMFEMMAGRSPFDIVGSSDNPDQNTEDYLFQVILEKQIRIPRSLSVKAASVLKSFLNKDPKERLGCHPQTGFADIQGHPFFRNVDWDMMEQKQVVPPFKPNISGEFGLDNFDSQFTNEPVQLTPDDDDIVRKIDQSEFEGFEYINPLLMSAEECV", "assay": "Inhibition of human PKCiota at 1 uM relative to control; values are per cent of control"}, "[9]": {"target": "Receptor-type tyrosine-protein kinase FLT3 (Homo sapiens) (UniProt P36888)", "assay": "Residual activity of human Flt3 at 1 uM relative to control"}, "Homo sapiens": {"species_on_record": "Homo sapiens", "assay": "Residual activity of human CDK3/Cyclin E at 1 uM relative to control"}, "[10]": {"target": "Serine/threonine-protein kinase PAK 2 (Homo sapiens) (UniProt Q13177)", "sequence (Q13177 whole entry)": "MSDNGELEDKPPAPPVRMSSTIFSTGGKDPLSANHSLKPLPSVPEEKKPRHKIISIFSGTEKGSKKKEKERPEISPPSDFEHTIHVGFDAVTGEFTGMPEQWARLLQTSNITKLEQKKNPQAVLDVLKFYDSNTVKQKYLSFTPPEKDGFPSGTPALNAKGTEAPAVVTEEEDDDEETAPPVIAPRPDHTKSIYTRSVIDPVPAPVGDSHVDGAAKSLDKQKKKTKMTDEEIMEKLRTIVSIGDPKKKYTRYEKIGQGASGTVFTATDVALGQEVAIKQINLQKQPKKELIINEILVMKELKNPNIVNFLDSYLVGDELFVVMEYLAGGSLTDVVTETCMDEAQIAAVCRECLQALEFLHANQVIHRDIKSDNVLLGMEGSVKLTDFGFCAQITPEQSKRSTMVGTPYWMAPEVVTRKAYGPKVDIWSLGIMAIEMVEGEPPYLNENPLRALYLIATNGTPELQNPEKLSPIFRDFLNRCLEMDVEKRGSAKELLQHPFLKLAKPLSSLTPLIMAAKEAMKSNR", "assay": "Inhibition of human PAK2 at 1 uM relative to control; values are per cent of control"}, "[11]": {"target": "Protein kinase C delta type (Homo sapiens) (UniProt Q05655)", "sequence (Q05655 whole entry, looked up)": "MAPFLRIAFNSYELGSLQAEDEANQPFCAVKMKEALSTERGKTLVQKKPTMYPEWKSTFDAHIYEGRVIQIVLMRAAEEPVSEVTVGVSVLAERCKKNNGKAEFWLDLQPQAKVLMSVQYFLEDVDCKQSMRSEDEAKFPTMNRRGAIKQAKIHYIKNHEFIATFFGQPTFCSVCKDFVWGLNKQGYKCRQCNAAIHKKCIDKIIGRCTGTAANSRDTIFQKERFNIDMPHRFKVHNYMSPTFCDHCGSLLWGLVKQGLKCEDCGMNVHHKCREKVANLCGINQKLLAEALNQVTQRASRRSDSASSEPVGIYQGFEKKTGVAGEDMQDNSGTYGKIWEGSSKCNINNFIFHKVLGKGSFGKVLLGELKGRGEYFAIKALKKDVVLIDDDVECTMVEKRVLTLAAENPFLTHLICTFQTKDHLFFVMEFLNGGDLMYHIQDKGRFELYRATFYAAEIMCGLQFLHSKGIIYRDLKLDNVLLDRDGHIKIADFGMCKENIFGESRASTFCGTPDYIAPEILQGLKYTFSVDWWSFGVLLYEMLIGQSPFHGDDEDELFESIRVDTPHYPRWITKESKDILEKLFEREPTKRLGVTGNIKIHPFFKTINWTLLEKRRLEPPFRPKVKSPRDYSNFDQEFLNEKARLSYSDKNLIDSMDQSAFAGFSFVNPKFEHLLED", "assay": "Inhibition of human PKCdelta at 1 uM relative to control; values are per cent of control"}, "[12]": {"target": "Protein kinase C gamma type (Homo sapiens) (UniProt P05129)", "assay": "Residual activity of human PKCgamma at 1 uM relative to control"}, "[13]": {"assay": "Inhibition of MEK1 at 1 uM relative to control; values are per cent of control", "settings": "Homo sapiens"}},
  "data": [
    {"smiles": "O=C1NC(=O)C2=C1c1cn(c3ccccc13)CCCc1ccc(c(N3CCCC3)n1)CCCn1cc2c2ccccc21", "values": [
      {"measurement": "residual activity", "setting": "[1]", "value": 113, "unit": "%"},
      {"measurement": "residual activity", "setting": "[2]", "value": 102, "unit": "%"},
      {"measurement": "residual activity", "setting": "[3]", "value": 33, "unit": "%"},
      {"measurement": "residual activity", "setting": "[4]", "value": 25, "unit": "%"},
      {"measurement": "residual activity", "setting": "[5]", "value": 105, "unit": "%"},
      {"measurement": "residual activity", "setting": "[6]", "value": 77, "unit": "%"},
      {"measurement": "residual activity", "setting": "[7]", "value": 117, "unit": "%"},
      {"measurement": "residual activity", "setting": "[8]", "value": 97, "unit": "%"},
      {"measurement": "residual activity", "setting": "[9]", "value": 85, "unit": "%"},
      {"measurement": "residual activity", "setting": "Homo sapiens", "value": 106, "unit": "%"},
      {"measurement": "residual activity", "setting": "[10]", "value": 102, "unit": "%"},
      {"measurement": "residual activity", "setting": "[11]", "value": 91, "unit": "%"},
      {"measurement": "residual activity", "setting": "[12]", "value": 102, "unit": "%"}
    ]},
    {"smiles": "CN(C)c1nc2ccc1CCCn1cc(c3ccccc31)C1=C(C(=O)NC1=O)c1cn(c3ccccc13)CC2", "values": [
      {"measurement": "residual activity", "setting": "[1]", "value": 110, "unit": "%"},
      {"measurement": "residual activity", "setting": "[13]", "value": 76, "unit": "%"},
      {"measurement": "residual activity", "setting": "[2]", "value": 86, "unit": "%"},
      {"measurement": "residual activity", "setting": "[3]", "value": 21, "unit": "%"},
      {"measurement": "residual activity", "setting": "[4]", "value": 33, "unit": "%"},
      {"measurement": "residual activity", "setting": "[5]", "value": 147, "unit": "%"},
      {"measurement": "residual activity", "setting": "[6]", "value": 64, "unit": "%"},
      {"measurement": "residual activity", "setting": "[7]", "value": 75, "unit": "%"},
      {"measurement": "residual activity", "setting": "[8]", "value": 85, "unit": "%"},
      {"measurement": "residual activity", "setting": "[9]", "value": 86, "unit": "%"},
      {"measurement": "residual activity", "setting": "Homo sapiens", "value": 59, "unit": "%"},
      {"measurement": "residual activity", "setting": "[10]", "value": 93, "unit": "%"},
      {"measurement": "residual activity", "setting": "[11]", "value": 73, "unit": "%"},
      {"measurement": "residual activity", "setting": "[12]", "value": 91, "unit": "%"}
    ]},
    {"smiles": "CN(C)c1cc2cc(n1)CCCn1cc(c3ccccc31)C1=C(C(=O)NC1=O)c1cn(c3ccccc13)CCC2", "values": [
      {"measurement": "residual activity", "setting": "[1]", "value": 118, "unit": "%"},
      {"measurement": "residual activity", "setting": "[13]", "value": 93, "unit": "%"},
      {"measurement": "residual activity", "setting": "[2]", "value": 118, "unit": "%"},
      {"measurement": "residual activity", "setting": "[3]", "value": 27, "unit": "%"},
      {"measurement": "residual activity", "setting": "[4]", "value": 5, "unit": "%"},
      {"measurement": "residual activity", "setting": "[5]", "value": 101, "unit": "%"},
      {"measurement": "residual activity", "setting": "[6]", "value": 68, "unit": "%"},
      {"measurement": "residual activity", "setting": "[7]", "value": 84, "unit": "%"},
      {"measurement": "residual activity", "setting": "[8]", "value": 109, "unit": "%"},
      {"measurement": "residual activity", "setting": "[9]", "value": 71, "unit": "%"},
      {"measurement": "residual activity", "setting": "Homo sapiens", "value": 89, "unit": "%"},
      {"measurement": "residual activity", "setting": "[10]", "value": 103, "unit": "%"},
      {"measurement": "residual activity", "setting": "[11]", "value": 100, "unit": "%"},
      {"measurement": "residual activity", "setting": "[12]", "value": 107, "unit": "%"}
    ]},
    {"smiles": "O=C1NC(=O)C2=C1c1cn(c3ccccc13)CCCc1cc(nc(N3CCCC3)c1)CCCn1cc2c2ccccc21", "values": [
      {"measurement": "residual activity", "setting": "[1]", "value": 118, "unit": "%"},
      {"measurement": "residual activity", "setting": "[13]", "value": 91, "unit": "%"},
      {"measurement": "residual activity", "setting": "[2]", "value": 104, "unit": "%"},
      {"measurement": "residual activity", "setting": "[3]", "value": 29, "unit": "%"},
      {"measurement": "residual activity", "setting": "[4]", "value": 5, "unit": "%"},
      {"measurement": "residual activity", "setting": "[5]", "value": 103, "unit": "%"},
      {"measurement": "residual activity", "setting": "[6]", "value": 74, "unit": "%"},
      {"measurement": "residual activity", "setting": "[7]", "value": 114, "unit": "%"},
      {"measurement": "residual activity", "setting": "[8]", "value": 102, "unit": "%"},
      {"measurement": "residual activity", "setting": "[9]", "value": 77, "unit": "%"},
      {"measurement": "residual activity", "setting": "Homo sapiens", "value": 86, "unit": "%"},
      {"measurement": "residual activity", "setting": "[10]", "value": 100, "unit": "%"},
      {"measurement": "residual activity", "setting": "[11]", "value": 104, "unit": "%"},
      {"measurement": "residual activity", "setting": "[12]", "value": 99, "unit": "%"}
    ]}
  ]
}
